# Test system: Liver microsomes
# Test: Metabolic stability in human liver microsomes in absence of NADPH
# Format: ADME, Microsome
row,Stability,SMILES
1,Stable,Cc1ncc(-c2ccc(C)c(-c3ccc4c(c3)NC(=O)C43CCOCC3)c2)[nH]1
2,Stable,Cc1cnc(-c2ccc(C)c(-c3ccc4c(c3)NC(=O)C43CCOCC3)c2)[nH]1
3,Stable,Cc1nc(-c2ccc(C)c(-c3ccc4c(c3)NC(=O)C43CCCC3)c2)no1

# Biological target: T1, Mitogen-activated protein kinase 14 (Homo sapiens, UniProt Q16539)
# Test: Inhibition of human p38alpha using biotinylated ATF2 as substrate at 60 uM preincubated for 1 hr measured after 1 hr by FRET assay
# T1 sequence (Q16539 whole entry): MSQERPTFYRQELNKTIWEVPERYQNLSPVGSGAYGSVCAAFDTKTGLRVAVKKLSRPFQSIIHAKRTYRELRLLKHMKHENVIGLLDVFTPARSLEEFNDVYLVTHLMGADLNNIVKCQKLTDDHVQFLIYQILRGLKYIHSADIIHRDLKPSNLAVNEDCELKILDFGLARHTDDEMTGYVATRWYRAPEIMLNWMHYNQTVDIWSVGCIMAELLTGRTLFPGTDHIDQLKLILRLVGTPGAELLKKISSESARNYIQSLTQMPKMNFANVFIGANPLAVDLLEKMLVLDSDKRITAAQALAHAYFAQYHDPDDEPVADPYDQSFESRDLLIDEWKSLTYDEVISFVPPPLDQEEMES
row,inhibition [%],SMILES
1,60,Cc1ccc2c(N)n[nH]c2c1-c1ccc2c(c1)NC(=O)C21CCOCC1

# Test system: Liver microsomes
# Test: Metabolic stability in rat liver microsomes in absence of NADPH
# Format: ADME, Microsome
row,Stability,SMILES
1,Stable,Cc1ncc(-c2ccc(C)c(-c3ccc4c(c3)NC(=O)C43CCOCC3)c2)[nH]1
2,Stable,Cc1cnc(-c2ccc(C)c(-c3ccc4c(c3)NC(=O)C43CCOCC3)c2)[nH]1
3,Stable,Cc1nc(-c2ccc(C)c(-c3ccc4c(c3)NC(=O)C43CCCC3)c2)no1

# Biological target: T1, Mitogen-activated protein kinase 14
# Description: Inhibition of human p38alpha using biotinylated ATF2 as substrate preincubated for 1 hr measured after 1 hr by FRET assay
row,SMILES,IC50 [nM]
1,Cc1ncc(-c2ccc(C)c(-c3ccc4c(c3)NC(=O)C43CCOCC3)c2)[nH]1,880
2,Cc1cnc(-c2ccc(C)c(-c3ccc4c(c3)NC(=O)C43CCOCC3)c2)[nH]1,173
3,Cc1nc(-c2ccc(C)c(-c3ccc4c(c3)NC(=O)C43CCCC3)c2)no1,583

# The next lines start with the values.
row,IC50 [nM],SMILES
1,135,Cc1ccc(-c2nnc(C3CC3)[nH]2)cc1-c1ccc2c(c1)NC(=O)C21CCCC1
2,87,Cc1nnc(-c2ccc(C)c(-c3ccc4c(c3)NC(=O)C4(C)C)c2)[nH]1
